Values joined by “and” are separate entries in the source; they are usually repeats but may differ in a detail not shown here. Equal values may be shown once.
Key:
Assay in all cases: Two-electrode voltage clamp of mutant KCNQ1 in Xenopus oocytes
Type in all cases: cell-based
KCNQ1 S253A = KCNQ1 S253A (Homo sapiens, UniProt P51787, S253A)
Excerpt: (§1) In a previous study, mutation of residues in the predicted PIP2-binding site reduced KCNQ1 currents. CP1 modifies voltage-dependent activation of KCNQ1 channels by shifting the voltage dependence of channel opening, measured as the voltage dependence of the conductance (G–V) relationship, to more negative voltages (Fig. 1c) among other characteristics (see below). We made mutations to the residues around the CP1-interacting pocket as indicated by molecular docking (Fig. 1b), and examined the effects of the mutations on the CP1-induced shift of the G–V relationship. The mutations of the KCNQ1 residues that interact with CP1 in docking simulations reduced the shift of the G–V relationship (Fig. 1c, d), supporting the interaction of these residues with CP1.
(§2) Complementary DNA (cDNA) encoding human KCNQ1 (UniProtKB/Swiss‐Prot under accession no. P51787), KCNQ2 (O43526), KCNQ3 (O43525), KCNE1 (P15382), Kir1.1 (P48048), hERG (Q12809), KV4.2 (Q63881), NaV1.5 (Q14524), NaV β1 (Q07699), CaV1.2 (Q13936), CaV β1a (Q02641), CaV α2/δ1 (P54289), and HCN4 (Q9Y3Q4) were subcloned into oocyte expression vectors, respectively. Site-directed mutations of the KCNQ1 channel were all produced by overlap extension polymerase chain reaction (PCR) with high-fidelity Pfu polymerase (Stratagene, CA). The presence of the desired mutation was verified by sequencing the PCR-amplified regions. All the primer sequences used in this study are available in Supplementary Table 1. The complementary RNA (cRNA) of all these channels and mutations was transcribed in vitro with the T3, T7, or SP6 polymerase mMessage mMachine kit (Invitrogen, Thermo Fisher Scientific, MO).
(§3) The use of Xenopus laevis to obtain oocytes was approved by the Washington University Animal Studies Committee (protocol #20190030). Oocytes were manually dispersed and digested with collagenase (0.5 mg/ml, Sigma-Aldrich, Saint Louis, MO) to remove the follicle cell layer. Stage V or VI oocytes were selected and injected with cRNAs (9.2 ng) of channel or mutations. Especially, to characterize IKs, a mix of cRNAs at a molar ratio 4:1 (KCNQ1:KCNE1) was injected. For KCNQ2/KCNQ3, the molar ratio was 1:1 (KCNQ2:KCNQ3). For sodium channels, a 3:1 molar ratio (β1:NaV1.5) and for calcium channels a weight ratio 1:1:1 (β1:α2/δ1:CaV1.2) was injected, respectively. Injected oocytes were incubated in ND96 solution containing (in mM) 96 NaCl, 2 KCl, 1.8 CaCl2, 1 MgCl2, and 5 HEPES, pH 7.6, supplemented with 2.5 mM Na pyruvate and 1% penicillin–streptomycin, at 18 °C for 3–7 days before recording.
(§4) The whole-oocyte ionic currents were recorded with a GeneClamp 500B amplifier (Axon Instruments, CA) or iTEV90 amplifier (HEKA, Germany) and then sampled at 1 kHz and low-pass-filtered at 2 kHz. The Patchmaster software (HEKA, Germany) was used to acquire data. The Kir1.1 current was recorded with a high K^+ bath solution containing (in mM) 96 KCl, 4 NaCl, 1 CaCl2, 2 MgCl2, and 10 HEPES, pH 7.3–7.4. The HCN4 current was recorded in ND66 solution containing (in mM) 66 NaCl, 32 KCl, 1.8 CaCl2, 1 MgCl2, and 5 HEPES, pH 7.6. All the other potassium channels were recorded in ND96 solution. The currents of CaV1.2 channel were recorded in 40 mM Ba^2+ bath solution containing (in mM) 40 Ba(OH)2, 50 TEA-OH, 2 KOH, and 5 HEPES, adjusted to pH 7.4 with methanesulfonic acid. CP1 (DISODIUM 5-BROMO-2-[9-CHLORO-3-(SULFONATOOXY) NAPHTHO [1,2-B] THIEN-2-YL]-1H-INDOL-3-YL SULFATE, Sigma-Aldrich, MO) and Chromanol 293B (Sigma-Aldrich, MO) were dissolved in bath solutions. All the chemicals were purchased from Sigma-Aldrich. To measure the I–V relations of the Kir1.1 channel, the test voltage was set from −100 to +60 mV for 1 s with 20-mV increments. The test pulses were stepped from a holding potential of 0 mV and then stepped back to 0 mV. The HCN4 currents were recorded by a test pulse between −30 and −140 mV in 10-mV step from a holding potential of −30 mV. […]

KCNQ1 Q359A = KCNQ1 Q359A (Homo sapiens, UniProt P51787, Q359A); details: 10 µM CP1, individual oocytes
Excerpt: as §1, §2, §3, §4

KCNQ1 R249A/S253A = KCNQ1 R249A/S253A (Homo sapiens, UniProt P51787, R249A/S253A); details: 10 µM CP1, individual oocytes
Excerpt: as §1, §2, §3, §4

- G/Gmax (KCNQ1 S253A; 10 µM CP1, -10 mV): 1.0000
- G/Gmax (KCNQ1 S253A; 10 µM CP1, -20 mV): 0.9987
- G/Gmax (KCNQ1 S253A; 10 µM CP1, -30 mV): 0.9693
- G/Gmax (KCNQ1 S253A; 10 µM CP1, -40 mV): 0.9339
- G/Gmax (KCNQ1 S253A; 10 µM CP1, -50 mV): 0.8910
- G/Gmax (KCNQ1 S253A; 10 µM CP1, -60 mV): 0.8327
- G/Gmax (KCNQ1 S253A; 10 µM CP1, -70 mV): 0.7485
- G/Gmax (KCNQ1 S253A; 10 µM CP1, -80 mV): 0.6141
- G/Gmax (KCNQ1 S253A; 10 µM CP1, -90 mV): 0.4531
- G/Gmax (KCNQ1 S253A; 10 µM CP1, -100 mV): 0.2784
- G/Gmax (KCNQ1 S253A; 10 µM CP1, -110 mV): 0.1217
- G/Gmax (KCNQ1 S253A; 10 µM CP1, -120 mV): 0.0000
- ∆V1/2 (KCNQ1 R249A/S253A): 49.1729 mV and 54.4047 mV and 38.3473 mV
Structure (SMILES): O=S(=O)([O-])Oc1c(-c2sc3c(ccc4cccc(Cl)c43)c2OS(=O)(=O)[O-])[nH]c2ccc(Br)cc12.[Na+].[Na+] [CP1, DISODIUM 5-BROMO-2-[9-CHLORO-3-(SULFONATOOXY) NAPHTHO [1,2-B] THIEN-2-YL]-1H-INDOL-3-YL SULFATE]
- ∆V1/2 (KCNQ1 S253A; 10 µM CP1, individual oocytes): 62.813 mV and 60.7614 mV and 50.2508 mV and 66.8458 mV
- ∆V1/2 (KCNQ1 Q359A): 92.2901 mV and 78.8586 mV and 79.8593 mV and 57.9843 mV
